{"source": "patent US20260355199A1", "about": "“COMPOSITIONS AND METHODS FOR TREATING OR PREVENTING NONALCOHOLIC STEATOHEPATITIS (NASH), ANOREXIA, DEPRESSION, ENDOMETRIOSIS, AND OTHER DISEASES OR DISORDERS” (priority 2022, published 2026)", "key": {"[1]": {"settings": "dosage and administration regimes used; cited from earlier work"}, "[2]": {"tested_on": "TET3", "assay": "TET3 protein stability (cycloheximide) in MDMs", "type": "cell-based, human", "settings": "10 μM, with cycloheximide", "description": "For TET protein stability assay of MDMs, cells in 24-well plates were incubated with vehicle or Bobcat339 at a final concentration of 10 μM for 3 h, followed by addition of cycloheximide (CHX, Cell Signaling, 2112) at a final concentration of 50 μg/mL. Proteins were harvested at 0, 2, 4, and 6 hours after addition of CHX."}, "[3]": {"tested_on": "let-7a", "assay": "let-7a level in mouse peritoneal macrophages", "type": "cell-based", "settings": "10 μM, 48 h", "description": "For cultured mouse peritoneal macrophages, cells were primed with 30 ng/ml of TGF-β1 (R&D Systems, 7666-MB0-005) for 48 h (to increase TET3 expression) before Bobcat339 treatment. Bobcat339 (or DMSO) was added at a final concentration of 10 μM, followed by RNA and protein extraction at time points indicated in the figure legends.\nFor let-7a qPCR, 10 ng of total RNA was reverse transcribed to cDNA in a reaction volume of 10 μl using miRCURY LNA RT Kit (QIAGEN, 339340). Quantitative real-time PCR reactions were carried out using miRCURY LNA SYBR Green PCR Kit (QIAGEN, 339346) and a let-7a-specific primer (Has-Let-7a-5p miRCURY LNA miRNA PCR Assay, QIAGEN, 339306/YP00205727) in a Bio-Rad iCycler. Gene expression levels were normalized against U6 (U6 snRNA v2 miRURY LNA miRNA PCR Assay, QIAGEN, 339306/YPO2119464, QIAGEN)."}, "[4]": {"tested_on": "Agrp, Npy and Slc32a1", "assay": "Agrp, Npy and Slc32a1 mRNA in GT1-7 cells", "type": "cell-based, mouse", "settings": "10 μM, 48 h", "excerpt": "Mouse GT1-7 hypothalamic neuronal cell line (Sigma-Aldrich, SCC116) and human SH-SY5Y neuroblastoma cell line (Sigma Aldrich, 94030304) were purchased and cultured according to the manufacturers' instructions. Purified Ad-TET3 adenovirus (Ad-FLAG.h-TET3, ADV-225322, Vector Biolabs) expressing human TET3 from a CMV promoter and Ad-GFP control adenovirus (1060, Vector Biolabs) were purchased.\nFor Bobcat339 treatment (FIG. 15A and FIG. 15B), GT1-7 cells grown in 24-well plates at 2×10^5 cells/well were incubated with vehicle or Bobcat339 at a final concentration of 10 μM for 6 h, followed by RNA and protein extractions. […] Protein and RNA were isolated 48 h later and analyzed.\n(§1) Total RNAs were extracted from neuronal cells or homogenized hypothalamic arcuate nucleus tissue samples using PureLink RNA Mini Kit (Ambion, 12183025). cDNA was synthesized using PrimeScript RT Reagent Kit in a 20 μl reaction containing 0.5-1 μg of total RNA. Real-time quantitative PCR was performed in a 15 μl reaction containing 0.5-1 μl of cDNA using SsoAdvanced Universal SYBR Green Supermix in a Bio-Rad iCycler. […]"}, "[5]": {"tested_on": "Tet3 mRNA", "assay": "Tet3 mRNA (RT-qPCR) in GT1-7 cells", "type": "cell-based, mouse", "settings": "10 μM, 6 h", "description": "For Bobcat339 treatment (FIG. 15A and FIG. 15B), GT1-7 cells grown in 24-well plates at 2×10^5 cells/well were incubated with vehicle or Bobcat339 at a final concentration of 10 μM for 6 h, followed by RNA and protein extractions. For TET3 protein stability assay (FIG. 15B), GT1-7 cells in 24-well plates at 2×10^5 cells/well were incubated with vehicle or Bobcat339 at a final concentration of 10 μM for 3 hours, followed by addition of cycloheximide (CHX, Cell Signaling, 2112) at a final concentration of […] in the presence of 10 μM of Bobcat339. Proteins were harvested at 0, 1, 2, and 3 hours after addition of CHX. For TET3 expression restoration experiments (FIG. 15C and FIG. 15D), GT1-7 or SH-SY5Y cells seeded in 24-well plates at 2×10^5 cells/well were infected with Ad-GFP or Ad-TET3 at 4000 gc/cell. Following 16 h of infection, vehicle or Bobcat339 were added at a final concentration of 10 μM. Protein and RNA were isolated 48 h later and analyzed.\nas §1"}}, "note": "Entries after “also recorded” stand apart in the source; their conditions may differ.", "data": [{"smiles": "Nc1nc(=O)n(-c2cccc(-c3ccccc3)c2)cc1Cl", "note": "[Bobcat339, 4-Amino-1-[1,1′-biphenyl]-3-yl-5-chloro-2(1H)-pyrimidinone]", "values": [{"measurement": "adverse pathology", "setting": "[1]", "result": "minimal adverse pathology"}, {"measurement": "TET3 protein stability", "setting": "[2]", "result": "reduced the steady-state level of TET3 much more dramatically than that of TET2"}, {"measurement": "let-7a level", "setting": "[3]", "result": "higher levels of let-7a"}, {"measurement": "Agrp, Npy and Slc32a1 mRNA levels", "setting": "[4]; with TET3-expressing adenovirus (Ad-TET3)", "result": "not seen when the level of TET3 protein was restored; also recorded: not seen when TET3 was overexpressed"}, {"measurement": "Agrp, Npy and Slc32a1 mRNA levels", "setting": "[4]; without exogenous TET3", "result": "increased in the mRNA levels of both Agrp and Npy; also recorded: increases in the mRNA levels of Agrp, Npy and Slc32a1; also recorded: significant increases in the Agrp/Nyp mRNAs"}, {"measurement": "Tet3 mRNA abundance", "setting": "[5]", "result": "without affecting its mRNA abundance; also recorded: without altering its mRNA abundance; also recorded: no significant difference between the two groups"}]}]}
